# Assay results taken from patent US20240270658A1, “Use of an N-Functionalized Alkoxy Pyrazole Compound as Nitrification Inhibitor” (BASF SE, priority 2021, published 2024).
# Assays:
# [1] = tested on: nitrification (soil Limburgerhof, microbial biomass); test: Inhibition of nitrification in soil incubation (NH4-N recovery and NO3-N formation); conditions: 14 days after treatment, 20° C.
# Description: The soil is incubated at 20° C. for two weeks prior to the experiments to activate the microbial biomass. 1 ml test solution, containing the compounds of formula I in the appropriate concentration (usually 0.3 or 1% (w/w) of fertilized NH4—N), and 10 mg nitrogen in the form of ammoniumsulfate-N(NH4—N) is added to the soil and everything mixed well. Unfertilized controls received 1 ml pure water. Bottles are capped but loosely to allow air exchange. The bottles are then incubated at 20° C. for 0 and 14 days. For analysis, 300 ml of a 1% K2SO4-solution is added to the bottle containing the soil and shaken for 2 hours in a horizontal shaker at 150 rpm. Then the whole solution is filtered through a filter (Macherey-Nagel Filter MN 807%). Ammonium and nitrate content is then analyzed in the filtrate using an autoanalyzer. Ammonium was quantified via an indophenol blue dye at 660 nm, and nitrate via an azo dye at 540 nm. The nitrification inhibition is expressed as % of NH4—N recovery from fertilized NH4—N (100%) after subtraction of unfertilized control soil, and as % inhibition of NO3—N formation (% reduction of NO3^− production) according to the formula: [formula]
# [2] = Stability (recovery experiment) of nitrification inhibitor on treated fertilizer granules; type: physicochemical; conditions: dose NI 1 % NH4N; for NI on fertilizer granules [%] after storage 4 weeks 20° C.: open beaker, 50% rH; for NI on fertilizer granules [%] initial: sample stored at -18° C.
# Description: Examples 2 and 3 were further tested with regard to Comparative Example 1 in terms of their stability (recovery experiment)
# Ammonium Sulphate Nitrate (ASN) fertilizer granules and Diammonium phosphate (DAP) fertilizer granules were treated with liquid preparations of the Nitrification Inhibitor (NI) of example 2 and 3 and Comparative Example 1.
# For the recovery experiment, a small amount (˜10g) of each treated fertilizer sample was filled into a closed glass vial and stored at −18° C. Another 250 g of each treated fertilizer sample were filled into an open glass beaker and stored at 20° C. and 50% relative humidity (rH). After four weeks of storage, 50g of the samples stored at 20° C. and 50% rH were drawn from the bottom and analyzed by HPCL for NI content in comparison to the −18° C. sample. The recovery is given in % as ratio of the NI content of the 20° C. sample divided by the NI content of the −18° C. sample.
# [3] = tested on: nitrification (soil Limburgerhof, microbial biomass); test: Comparison of % NH4-N recovery in soil incubation, data pooled from different trials; conditions: average pooled from different trials
# Description: Examples 2 and 3 were further tested with regard to Comparative Example 1 in terms of the % NH4—N recovery. 100 g Soil (soil Limburgerhof with pH(CaCl2) 6.8; 73% sand, 23% silt, 4% clay, which is classified according to FAO as a sandy loam) is filled into 500 ml plastic bottles and is moistened to 50% water holding capacity. The soil is incubated at 20° C. for two weeks prior to the experiments to activate the microbial biomass. 1 ml Test solution, containing the compounds of formula I or the comparative example in the appropriate concentration (0.3 or 1% (w/w) of fertilized NH4—N), and 10 mg nitrogen in the form of ammoniumsulfate-N(NH4—N) is added to the soil and everything mixed well. Unfertilized controls received 1 ml pure water. Bottles are capped but loosely to allow air exchange. The bottles are then incubated at 20° C. for 14 days. For analysis, 300 ml of a 1% K2SO4-solution is added to the bottle containing the soil and shaken for 2 hours in a horizontal shaker at 150 rpm. Then the whole solution is filtered through a filter (Macherey-Nagel Filter MN 807%). Ammonium content is then analyzed in the filtrate using an autoanalyzer. Ammonium was quantified via an indophenol blue dye at 660 nm. The nitrification inhibition is expressed as % of NH4—N recovery from fertilized NH4—N (100%) after subtraction of unfertilized control soil. For comparison of the % NH4—N recovery of the compounds of the invention, i.e. Examples 2 and 3, with comparative example 1 as shown below from different trials, the standard deviation of a common treatment of all trials with DMPP (3,4-dimethylpyrazole phosphate) was calculated. Based on this calculation the data from different trials can be pooled together to calculate an average % NH4—N recovery for the compounds of the invention and the comparative compound as shown below.
# [4] = Volatility of prior-art nitrification inhibitor; type: physicochemical; conditions: statement in words on the prior-art compound
# Excerpt: Sharma et al. (J P Sharma, H K Taneja, S S Tomar Pesticide Research Journal, 2006, 18(1), 7-11) inter alia discloses 3-ethoxy-5-methylpyrazole as nitrification inhibitor.
# [5] = applied dose 0.3 wt.-% relative to NH4-N
# [6] = applied dose 1.0 wt.-% relative to NH4-N
compound,measurement,setting,value
CCCCCCCOC(=O)n1nc(OC)cc1C [Example 2],average inhibition % of NO3 DAT14 (n = 4),[1]; [5],60%
same,average recovery % NH4-N DAT14 (n = 4),[1]; [5],55%
same,average inhibition % of NO3 DAT14 (n = 4),[1]; [6],89%
same,average recovery % NH4-N DAT14 (n = 4),[1]; [6],66%
same,NI on fertilizer granules [%] after storage 4 weeks 20° C.,[2]; DAP fertilizer granules,0.015%
same,NI on fertilizer granules [%] initial,[2]; DAP fertilizer granules,0.023%
same,% NH4-N recovery after 14 days,[3]; 0.3 wt.-% relative to NH4-N,47%
same,% NH4-N recovery after 14 days,[3]; 1 wt.-% relative to NH4-N,58%
COc1cc(C)n(C(=O)c2cccc(F)c2)n1 [Example 5],average inhibition % of NO3 DAT14 (n = 4),[1]; [5],20%
same,average recovery % NH4-N DAT14 (n = 4),[1]; [5],25%
same,average inhibition % of NO3 DAT14 (n = 4),[1]; [6],50%
same,average recovery % NH4-N DAT14 (n = 4),[1]; [6],39%
CCCCCCCOC(=O)n1nc(C)cc1OC [Example 1],average inhibition % of NO3 DAT14 (n = 4),[1]; [5],44%
same,average recovery % NH4-N DAT14 (n = 4),[1]; [5],40%
same,average inhibition % of NO3 DAT14 (n = 4),[1]; [6],82%
same,average recovery % NH4-N DAT14 (n = 4),[1]; [6],68%
COc1cc(C)n(C(=O)C2CCOCC2)n1 [Example 4],average inhibition % of NO3 DAT14 (n = 4),[1]; [5],33%
same,average recovery % NH4-N DAT14 (n = 4),[1]; [5],40%
same,average inhibition % of NO3 DAT14 (n = 4),[1]; [6],82%
same,average recovery % NH4-N DAT14 (n = 4),[1]; [6],66%
"CCOc1cc(C)nn1CO [Comparative Example 1, reference compound]",NI on fertilizer granules [%] after storage 4 weeks 20° C.,[2]; ASN fertilizer granules,0.000%
same,NI on fertilizer granules [%] initial,[2]; ASN fertilizer granules,0.034%
same,NI on fertilizer granules [%] after storage 4 weeks 20° C.,[2]; DAP fertilizer granules,0.057%
same,NI on fertilizer granules [%] initial,[2]; DAP fertilizer granules,0.110%
same,% NH4-N recovery after 14 days,[3]; 0.3 wt.-% relative to NH4-N,36%
same,% NH4-N recovery after 14 days,[3]; 1 wt.-% relative to NH4-N,46%
CCOC(=O)CC(=O)n1nc(OC)cc1C [Example 3],average inhibition % of NO3 DAT14 (n = 4),[1]; [5],60%
same,average recovery % NH4-N DAT14 (n = 4),[1]; [5],49%
same,average inhibition % of NO3 DAT14 (n = 4),[1]; [6],90%
same,average recovery % NH4-N DAT14 (n = 4),[1]; [6],71%
same,NI on fertilizer granules [%] after storage 4 weeks 20° C.,[2]; ASN fertilizer granules,0.113%
same,NI on fertilizer granules [%] initial,[2]; ASN fertilizer granules,0.116%
same,NI on fertilizer granules [%] after storage 4 weeks 20° C.,[2]; DAP fertilizer granules,0.044%
same,NI on fertilizer granules [%] initial,[2]; DAP fertilizer granules,0.052%
same,% NH4-N recovery after 14 days,[3]; 0.3 wt.-% relative to NH4-N,41%
same,% NH4-N recovery after 14 days,[3]; 1 wt.-% relative to NH4-N,64%
CCOc1cc(C)[nH]n1 [3-ethoxy-5-methylpyrazole],volatility,[4],high volatility
